# In PubChem BioAssay (NCI):
#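 Assay format: 96-well plates, 48-hour exposure. GI50: concentration for 50% inhibition of growth. TGI is the concentration that stops growth completely.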 Where a SMILES comes first, the peptide text is derived from it. [ ]: non-standard residue; d: D form. The star is where a group is joined. mTyr = N[CH](Cc1cccc(O)c1)C(=O)O; Cbz = O=C(OCc1ccccc1)*; OBn = c1ccc(CO*)cc1
# Key:
# Test in all cases: inhibition of tumour cell growth, NCI panel, 48 h
# [1] = test system: A498 renal
# [2] = test system: OVCAR-3 ovarian
# [3] = test system: SF-268 CNS
# [4] = test system: OVCAR-5 ovarian
# [5] = test system: HCT-116 colon
# [6] = test system: UACC-62 melanoma
# [7] = test system: SR leukemia
# [8] = test system: MDA-MB-435
# [9] = test system: HS 578T breast
# [10] = test system: BT-549 breast
SMILES,TGI [1] [µM],TGI [2] [µM],TGI [3] [µM],TGI [4] [µM],TGI [5] [µM],TGI [6] [µM],TGI [7] [µM],TGI [8] [µM],TGI [9] [µM],TGI [10] [µM],GI50 [8] [nM],GI50 [9] [nM],GI50 [1] [µM],GI50 [2] [µM],GI50 [3] [nM],GI50 [4] [µM],GI50 [5] [nM],GI50 [10] [µM],GI50 [6] [nM]
COc1cc2c(cc1OC)C1(c3ccc(Cl)cc3)ON=C(c3ccccc3)N1CS2 (centres undefined),> 100,> 100,> 100,> 100,> 100,> 100,> 100,–,–,–,–,–,–,–,–,–,–,–,–
CCN(c1cccc(NC(=S)Nc2ccccc2N(CC)c2cc(-c3ccccc3)no2)c1)c1cc(-c2ccccc2)no1,–,> 100,> 100,> 100,> 100,> 100,> 100,> 100,> 100,> 100,–,–,–,–,–,–,–,–,–
O=C(Cc1ccccc1)NN1C(=O)C(Cl)C1c1ccccc1O (centres undefined),–,> 100,> 100,> 100,> 100,> 100,> 100,–,–,–,–,–,–,–,–,–,–,–,–
CC1(O)OC(=O)C2=C1CCC1C2CCC2(C)C(O)CCC12 (centres undefined),> 100,> 100,> 100,> 100,> 100,> 100,> 100,> 100,> 100,> 100,–,–,–,–,–,–,–,–,–
COC(=O)c1c(O)ccc2c1C1(Cc3ccccc3C1=O)C(O)O2 (centres undefined),> 100,43.9,51.6,51.7,32.6,–,25.3,31.1,61,37,–,–,–,–,–,–,–,–,–
Brc1ccc(-c2cn3ccncc3n2)cc1,> 100,> 100,> 100,> 100,> 100,> 100,> 100,> 100,> 100,> 100,–,–,–,–,–,–,–,–,–
COc1cccc(N2C(=O)C3c4[nH]c5ccc(C)cc5c4C4CCC(C(C)(C)C)CC4C3C2=O)c1 (centres undefined),> 10,> 10,> 10,7.81,4.75,> 10,4.03,> 10,> 10,–,–,–,–,–,–,–,–,–,–
CC(C)CN=C(N)N=C(N)N,–,> 100,> 100,> 100,> 100,> 100,> 100,> 100,> 100,> 100,–,–,–,–,–,–,–,–,–
CCOP(=O)(OCC)C(C)(CC)NC (centres undefined),> 100,> 100,> 100,> 100,> 100,> 100,–,> 100,> 100,> 100,–,–,–,–,–,–,–,–,–
O=C1C[C@@H](c2ccccc2)O[C@@H](c2ccccc2)C1,–,> 100,> 100,> 100,> 100,> 100,–,> 100,> 100,> 100,–,–,–,–,–,–,–,–,–
O=C(O)CNC(=O)c1c2ccccc2nc2ccccc12,> 100,> 100,> 100,> 100,> 100,> 100,> 100,> 100,–,> 100,–,–,–,–,–,–,–,–,–
CC1=NN(C(=O)CSc2nc3ccc(I)cc3c(=O)n2Cc2ccccc2)C(=O)C1,83.7,54.9,69.5,> 100,> 100,> 100,74,75.2,35.8,–,–,–,–,–,–,–,–,–,–
CCN(CC)Cc1sc2nc3ccccc3n2c1-c1ccc(OC)cc1,71.6,> 100,> 100,> 100,> 100,> 100,–,12.9,> 100,> 100,–,–,–,–,–,–,–,–,–
CC(C)(C)c1cc(C2COC(c3cc(C(C)(C)C)c(O)c(C(C)(C)C)c3)CO2)cc(C(C)(C)C)c1O (centres undefined),> 100,> 100,> 100,> 100,> 100,> 100,–,> 100,> 100,> 100,–,–,–,–,–,–,–,–,–
Cc1ccc(CC(C)N)cc1 (centres undefined),> 100,> 100,> 100,> 100,> 100,> 100,–,–,–,–,–,–,–,–,–,–,–,–,–
CCC(c1c[nH]c2ccc(Br)cc12)c1c[nH]c2ccc(Br)cc12,13.3,14.2,20.7,16.6,15.1,22.2,–,11,27,23.3,–,–,–,–,–,–,–,–,–
c1ccc(CSCCc2ccncc2)cc1,> 100,> 100,> 100,> 100,> 100,> 100,–,> 100,> 100,> 100,–,–,–,–,–,–,–,–,–
COc1ccc2c(c1)CCN1CCc3cc(OC)c(OC)cc3CC21 (centres undefined),> 100,–,> 100,> 100,> 100,> 100,> 100,> 100,> 100,55.6,–,–,–,–,–,–,–,–,–
Cc1cc(NCCCCCCCNc2cc(C)nc3cc([N+](=O)[O-])ccc23)c2ccc([N+](=O)[O-])cc2n1,30.4,25,7.5,29.8,3.56,53.2,–,39,5.53,67.3,–,–,–,–,–,–,–,–,–
Cc1n[nH]c(=O)n1/N=C/c1ccc([N+](=O)[O-])o1,47.6,17.8,45.6,53.1,30.2,33.6,–,18.6,–,36.6,–,–,–,–,–,–,–,–,–
CC(=O)OCC1OC(n2c(=O)[nH]c(=O)c3sccc32)C(Br)C1OC(C)=O (centres undefined),> 100,> 100,> 100,> 100,> 100,–,> 100,> 100,> 100,> 100,–,–,–,–,–,–,–,–,–
CSCCC(NC(=O)Cc1ccc(C(=O)c2ccccc2)cc1)C(=O)O (centres undefined),> 100,> 100,> 100,> 100,> 100,> 100,–,> 100,> 100,> 100,–,–,–,–,–,–,–,–,–
O[C@H]1[C@H](O)[C@@H](O)[C@@]2(O)C[C@@H](O)[C@@H]1N2,> 100,> 100,> 100,–,> 100,> 100,> 100,> 100,> 100,–,–,–,–,–,–,–,–,–,–
Nc1ccc(C(=O)NN2C(=O)C(Cl)C2c2ccccc2)cc1 (centres undefined),> 100,> 100,> 100,> 100,> 100,> 100,–,–,–,–,–,–,–,–,–,–,–,–,–

SMILES,TGI [1] [µM],TGI [2] [µM],TGI [3] [µM],TGI [4] [µM],TGI [5] [µM],TGI [6] [µM],TGI [7] [µM],TGI [8] [µM],TGI [9] [µM],TGI [10] [µM],GI50 [8] [nM],GI50 [9] [nM],GI50 [1] [µM],GI50 [2] [µM],GI50 [3] [nM],GI50 [4] [µM],GI50 [5] [nM],GI50 [10] [µM],GI50 [6] [nM]
CC1OC(O[C@H]2/C=C/C=C/C=C/C=C/C=C/C=C/C=C/[C@H](C)[C@@H](O)[C@@H](C)[C@H](C)OC(=O)CC(O)CC(O)CCC(O)C(O)CC(O)C[C@]3(O)C[C@H](O)C(C(=O)O)C(C2)O3)C(O)[C@H](N)C1O (some centres undefined),25.9,5.35,4.29,16.8,4.05,7.62,–,3.69,8.25,30.4,2010,2390,12,2.39,2060,3.88,1990,13.9,2780
O=C(CC(=O)Nc1ccccc1)N/N=C/c1cc(N=Nc2ccc(Br)cc2)ccc1O,–,–,> 10,–,–,> 10,9.75,–,> 10,> 10,–,–,–,–,–,–,–,–,–
Cc1ccc(N=Nc2c(O)c(C(=O)Nc3ccccc3)cc3ccccc23)c([N+](=O)[O-])c1,> 100,> 100,> 100,> 100,> 100,> 100,–,> 100,> 100,> 100,–,–,–,–,–,–,–,–,–
CCC[C@H](C)C[C@H](C)C[C@H](C)/C=C(\C)[C@@H](O)[C@@H](C)C(=O)CC,42.6,34.4,39.6,34.1,33.9,33.8,–,35.7,51.8,44.1,–,–,–,–,–,–,–,–,–
CNc1ccc(N)cc1C(=O)N1CCC[C@H]1CO,> 100,–,> 100,> 100,> 100,> 100,–,> 100,> 100,> 100,–,–,–,–,–,–,–,–,–
CCC1(COC(NC(=O)c2ccccc2)(C(F)(F)F)C(F)(F)F)COC1,> 100,–,> 100,> 100,> 100,–,> 100,> 100,> 100,> 100,–,–,–,–,–,–,–,–,–
FC(F)(F)c1ccc2nc(Sc3ccccn3)cnc2c1,54.1,–,> 100,> 100,> 100,88.3,–,> 100,> 100,68.1,–,–,–,–,–,–,–,–,–
COc1cc([C@@H]2c3cc(O)c(OC)cc3C=C(C(N)=O)[C@H]2C(N)=O)ccc1O,> 100,> 100,> 100,> 100,> 100,–,> 100,> 100,> 100,–,–,–,–,–,–,–,–,–,–
O=[As](O)(O)c1ccc(N=Nc2ccc(O)cc2)cc1,> 100,> 100,> 100,> 100,> 100,> 100,–,> 100,> 100,> 100,–,–,–,–,–,–,–,–,–
COC(=O)C(Cc1cccc(O)c1)NC(=O)C(CC(=O)OCc1ccccc1)NC(=O)OCc1ccccc1 (centres undefined) (Cbz-Asp(OBn)-[mTyr]-OMe; configuration not given here),> 100,–,–,> 100,> 100,> 100,> 100,–,> 100,> 100,–,–,–,–,–,–,–,–,–
CCOc1ccc(-n2nnc3c(N)nc(N)nc32)cc1,> 100,> 100,–,> 100,> 100,> 100,> 100,> 100,–,> 100,–,–,–,–,–,–,–,–,–
COc1ccc(N=C2C(=Nc3ccc(OC)cc3)N(c3ccccc3)C(=S)N2N=C=C2Sc3ccccc3N2C)cc1,–,> 100,> 100,> 100,> 100,> 100,> 100,> 100,> 100,> 100,–,–,–,–,–,–,–,–,–
CCCc1ccc(NCc2cc(OC)c(OC)c(OC)c2)cc1,98.6,54.4,79.2,> 100,48.3,> 100,–,–,–,–,–,–,–,19,–,–,–,–,–
CCOC(=O)CSc1nnc(C(Sc2nc(-c3ccccc3)c(-c3ccccc3)[nH]2)C(C)C)n1-c1ccccc1 (centres undefined),> 10,> 10,> 31.6,28.5,> 31.6,> 10,> 89.6,–,–,52.9,–,–,–,–,–,–,–,–,–
CC(NC(C)(C)C)C(=O)c1cccc(Cl)c1 (centres undefined),> 100,> 100,> 100,–,> 100,> 100,–,–,–,–,–,–,–,–,–,–,–,–,–
CC(C)=C/C=C1/CS(=O)(=O)C=C1C,> 100,> 100,–,> 100,> 100,> 100,–,> 100,–,–,–,–,–,–,–,–,–,–,–
CC1OC(OC2C(OC(=O)[C@@H]3CC(C)(C)C[C@H]4C5=CC[C@@H]6[C@@]7(C)C[C@H](O)[C@H](OC8OC(CO)C(O)C(O)C8O)[C@@](C)(CO)[C@@H]7[C@H](O)C[C@@]6(C)[C@]5(C)CC[C@@]34C)OCC(O)C2O)C(O)C(O)C1O (some centres undefined),–,> 7.5,> 7.5,> 7.5,> 7.5,> 7.5,–,> 7.5,> 7.5,> 7.5,–,–,–,–,–,–,–,–,–
COc1ccc(CSc2ccccc2Cn2cccc2)cc1OC,> 100,> 100,> 100,> 100,> 100,> 100,> 100,> 100,–,> 100,–,–,–,–,–,–,–,–,–
CCN(CC)CCNCc1cc(Cl)cc2c1OCOC2,> 10,> 10,> 10,> 10,> 10,> 10,> 10,> 10,> 10,–,–,–,–,–,–,–,–,–,–
O=C1NC(=S)N(c2ccccc2)C1=O,> 100,–,> 100,> 100,> 100,> 100,> 100,> 100,> 100,–,–,–,–,–,–,–,–,–,–
COc1ccc(/C=C2\CN(C)C/C(=C\c3ccc(OC)c(OC)c3OC)C2=O)c(OC)c1OC,0.313,0.335,2.01,0.656,0.196,0.548,0.0854,0.0541,> 100,–,–,–,–,–,–,–,–,–,–
Brc1c(C#CCC2CCCCC2)ccc(C#CCC2CCCCC2)c1Br,> 100,> 100,> 100,> 100,–,> 100,> 100,> 100,> 100,> 100,–,–,–,–,–,–,–,–,–
COc1cc(/C=C(/C#N)C(N)=O)ccc1O,> 100,> 100,> 100,> 100,> 100,> 100,–,–,–,–,–,–,–,–,–,–,–,–,–
